Measured values: ChEMBL document CHEMBL6120974, “Hydrazide-Based Class I Selective HDAC Inhibitors Completely Reverse Chemoresistance Synergistically in Platinum-Resistant Solid Cancer Cells” (J Med Chem, 2024)
Converted amounts (≈) assume the structure as drawn. The source made the active and inactive calls. The rule behind the calls is not given here.

Legend:
[1] = tested on: Cal27CisR; test: Downregulation of survivin expression in cisplatin resistant human Cal27CisR cells at 0.316 uM in presence of cisplatin at 16.5 uM preincubated with compound for 48 hrs prior to addition of cisplatin and measured after 24 hrs by Immunoblotting analysis; assay type: functional, cell-based; details: time 72.0 hrs
[2] = tested on: A2780; test: Induction of apoptosis in human A2780 cells assessed as increase in caspase 3/7 activation at 0.75 uM in presence of cisplatin preincubated with compound for 48 hrs co-treated with cisplatin and measured after 24 hrs by capase3/7 green dye based analysis; assay type: functional, cell-based; details: time 72.0 hrs
[3] = tested on: A2780cisR; test: Induction of apoptosis in cisplatin resistant human A2780 cisR cells assessed as increase in caspase 3/7 activation at 2 uM in presence of cisplatin preincubated with compound for 48 hrs co-treated with cisplatin and measured after 24 hrs by capase3/7 green dye based analysis; assay type: functional, cell-based; details: time 72.0 hrs
[4] = tested on: CAL-27; test: Induction of apoptosis in human CAL-27 cells assessed as apoptotic nuclei at sub-G1 phase at 0.316 uM incubated for 48 hrs by flow cytometric analysis; assay type: functional, cell-based
[5] = Cytotoxicity against human HEK293 cells assessed as reduction in cell viability incubated for 72 hrs by MTT assay; assay type: toxicity, cell-based
[6] = tested on: A2780; test: Effect of Bcl-2 protein level in human A2780 cells at 0.75 uM incubated for 48 hrs by Immunoblotting analysis; assay type: functional, cell-based
[7] = tested on: A2780; test: cells; details: Homo sapiens, A2780, 72 h
Description: Cytotoxicity against human A2780 cells assessed as reduction in cell viability incubated for 72 hrs by MTT assay

[8] = tested on: A2780cisR; test: Induction of apoptosis in cisplatin resistant human A2780 cisR cells assessed as increase in apoptotic nuclei at sub-G1 phase at 2 uM in presence of cisplatin at 16 uM preincubated with compound for 48 hrs prior to addition of cisplatin and measured after 24 hrs by flow cytometric analysis; assay type: functional, cell-based; details: time 72.0 hrs
[9] = cells; details: Homo sapiens, CAL-27
Description: Inhibition of class IIa/8 HDAC (unknown origin) in human CAL-27 cells using Boc-Lys(TFA)-AMC as substrate preincubated with compound for 18 hrs followed by substrate addition and measured after 3 hrs by NOVOstar microplate reader analysis

[10] = tested on: A2780cisR; test: Effect of Bcl-2 protein level in cisplatin resistant human A2780 cisR cells at 2 uM incubated for 48 hrs by Immunoblotting analysis; assay type: functional, cell-based
[11] = tested on: Cal27CisR; test: Induction of apoptosis in cisplatin resistant human Cal27CisR cells assessed as decrease in p21 expression at 0.316 uM incubated for 24 to 72 hrs by Immunoblotting analysis; assay type: functional, cell-based; details: time 24-72 hrs
[12] = tested on: Cal27CisR; test: Induction of apoptosis in cisplatin resistant human Cal27CisR cells assessed as decrease in BIM expression at 0.316 uM incubated for 24 to 72 hrs by Immunoblotting analysis; assay type: functional, cell-based; details: time 24-72 hrs
[13] = tested on: Cal27CisR; test: Induction of apoptosis in cisplatin resistant human Cal27CisR cells assessed as decrease in p21 expression at 0.316 uM in presence of cisplatin at 16.5 uM preincubated with compound for 24 to 72 hrs prior to addition of cisplatin and measured after 24 hrs by Immunoblotting analysis; assay type: functional, cell-based; details: time 48-96 hrs
[14] = tested on: Cal27CisR; test: Induction of apoptosis in cisplatin resistant human Cal27CisR cells assessed as decrease in BAX expression at 0.316 uM in presence of cisplatin at 16.5 uM preincubated with compound for 24 to 72 hrs prior to addition of cisplatin and measured after 24 hrs by Immunoblotting analysis; assay type: functional, cell-based; details: time 48-96 hrs
[15] = tested on: Cal27CisR; test: Induction of apoptosis in cisplatin resistant human Cal27CisR cells assessed as decrease in Bcl-2 expression at 0.316 uM in presence of cisplatin at 16.5 uM preincubated with compound for 24 to 72 hrs prior to addition of cisplatin and measured after 24 hrs by Immunoblotting analysis; assay type: functional, cell-based; details: time 48-96 hrs
[16] = tested on: Cal27CisR; test: Induction of apoptosis in cisplatin resistant human Cal27CisR cells assessed as decrease in survivin expression at 0.316 uM in presence of cisplatin at 16.5 uM preincubated with compound for 24 to 72 hrs prior to addition of cisplatin and measured after 24 hrs by Immunoblotting analysis; assay type: functional, cell-based; details: time 48-96 hrs
[17] = tested on: Cal27CisR; test: Induction of apoptosis in cisplatin resistant human Cal27CisR cells assessed as decrease in survivin expression at 0.316 uM incubated for 24 to 72 hrs by Immunoblotting analysis; assay type: functional, cell-based; details: time 24-72 hrs
[18] = Solubility of the compound in PBS buffer at pH 7.4 incubated for 72 hrs by HPLC/UV analysis; assay type: physicochemical
[19] = tested on: Cal27CisR; test: Induction of apoptosis in cisplatin resistant human Cal27CisR cells assessed as decrease in BIM expression at 0.316 uM in presence of cisplatin at 16.5 uM preincubated with compound for 24 to 72 hrs prior to addition of cisplatin and measured after 24 hrs by Immunoblotting analysis; assay type: functional, cell-based; details: time 48-96 hrs

Structure (SMILES) | Activity [1] | Activity [2] | Activity [3] | Activity [4] | IC50 at 72 h [5] [nM] | Activity [6] | IC50 [7] [nM] | Activity [8] | IC50 [9] [nM] | Activity [10] | Activity [11] | Activity [12] | Activity [13] | Activity [14] | Activity [15] | Activity [16] | Activity [17] | solubility at 72 h [18] [µg/mL] | Activity [19]
CCCCNNC(=O)c1ccc(CN(CC(=O)NCc2ccccc2)C(=O)c2ccc(N(C)C)cc2)cc1 | Active | Active | Active | Active; Moderate Percentage Of Apoptotic Nuclei Observed | 1090 | inactive | 894 | inactive | 1020 | inactive | – | – | – | – | – | – | – | – | –
CCCNNC(=O)c1ccc(CN(CC(=O)NCc2ccccc2)C(=O)c2ccc(N(C)C)cc2)cc1 | Active | Active | Active | Active; Moderate Percentage Of Apoptotic Nuclei Observed | 1160 | – | 1130 | inactive | 1020 | – | inactive | inactive | Active | Active | Active | Active | inactive | 16.8 (≈ 33.5 µM) | Active
